According to patent US20080031968A1, “Methods for increasing cellular energy expenditure” (priority 2005, published 2008):

Assays:
KK-Ay mice [1] = test: CA or GW4064 treatment of KK-Ay mice, serum lipids; type: in vivo, mouse; details: chow-fed KK-Ay mice, 1 week, intraperitoneal 10 mg/kg daily
Procedure: (§1) Male C57BL/6J, KK-Ay, and ob/ob (C57BL/6J background) mice, 6-10 weeks of age, were obtained from Elevage Janvier (Le Genest St. Isle, France), CLEA Japan Inc. (Tokyo, Japan), and The Jackson Laboratory (Bar Harbor, Me., USA), respectively. All mice were maintained in a temperature-controlled (23° C.) facility with a 12-hour light/dark cycle and were given free access to food and water. The study protocols were approved by the institutional review boards. The body weight and food intake were measured every second day. The control and high-fat diet was obtained from UAR (Villemoisson sur Orge, France). […] The mice were fasted 4 hours before harvesting blood for subsequent lipid measurements, and tissues for RNA isolation, lipid measurements, and histology.
For measurement of liver TGs and cholesterol content, a liver was homogenized in chloroform/methanol (2:1 v/v) using a Polytron tissue grinder (Kinematica AG, Luzern, Switzerland). Lipid extracts were prepared by the classical Folch method. Extracts were dried under N2 flow and resuspended in isopropanol.

ob/ob mice = test: GW4064 treatment of ob/ob mice, serum TG; type: in vivo, mouse; details: chow-fed ob/ob mice, 1 week, intraperitoneal 10 mg/kg daily
Procedure: Male C57BL/6J, KK-Ay, and ob/ob (C57BL/6J background) mice, 6-10 weeks of age, were obtained from Elevage Janvier (Le Genest St. Isle, France), CLEA Japan Inc. (Tokyo, Japan), and The Jackson Laboratory (Bar Harbor, Me., USA), respectively. All mice were maintained in a temperature-controlled (23° C.) facility with a 12-hour light/dark cycle and were given free access to food and water. The study protocols were approved by the institutional review boards. The body weight and food intake were measured every second day. The control and high-fat diet was obtained from UAR (Villemoisson sur Orge, France). The control diet (EQ12310) contained 16.8% protein, 73.5% carbohydrate, and 4.8% fat, whereas the high-fat diet (EQ/ID12309) contained 23.0% protein, 35.5% carbohydrate, and 35.9% fat. For treatment with bile acids, mice were fed diets with 0.5% (w/w) CA. The mice were fasted 4 hours before harvesting blood for subsequent lipid measurements, and tissues for RNA isolation, lipid measurements, and histology. Male SHP−/−mice and littermate SHP+/+ controls (C57/BL6-A129/SvJ mixed strain) of 8 weeks were fed the CA diet as just described or gavaged with GW4064 dissolved in corn oil at 30 mg/kg. […]
Serum total cholesterol, TGs, and lipoprotein cholesterol and TG profiles were measured as described (Rocchi, et al., Mol Cell. 8:737-747 (2001); Picard, et al., Cell 111:931-941 (2002)). […]

KK-Ay mice [2] = test: In vivo VLDL TG production (Tyloxapol) in KK-Ay mice; set-up: species or system mouse; details: 1-week administration of GW4064
SHP+/+ and SHP-/- mice = test: FXR agonists in SHP+/+ and SHP-/- mice; type: in vivo, mouse; details: for hepatic expression of SREBP-1c, ME, CYP7A1 and ANGPTL3: 1-day treatment
Procedure: as §1

C57BL/6J mice = test: Diet-induced obesity in C57BL/6J mice; type: in vivo, mouse
Procedure: Male C57BL/6J and KK-Ay mice, 6-7 weeks of age, were obtained from Charles River Laboratories France (l'Arbresle, France) and CLEA Japan Inc. (Tokyo, Japan), respectively. […] All mice were maintained in a temperature-controlled (23° C.) facility with a 12 h light/dark cycle and were given free access to food and water. The control and high-fat diet was obtained from UAR (Villemoison surOrge, France). […] GW4064 was suspended in peanut oil and mixed with the high fat diet at a concentration of 180 mg per kg of food. […] The mice were fasted 4 h before harvesting blood for subsequent blood measurements, and tissues for RNA isolation, lipid measurements and histology. Oxygen consumption was measured using the Oxymax apparatus (Columbus Instruments, Columbus, Ohio).
(§2) An OGTT was performed in animals that were fasted overnight. Glucose was administered by gavage at a dose of 2 g/kg. An IPITT was done in 4 h fasted animals. Insulin was injected at a dose of 0.75 U/kg. Glucose quantification was done with the Maxi Kit Glucometer 4 (Bayer Diagnostic, Puteaux, France) or Glucose RTU (bioMérieux Inc., Marcy l'Etoile, France). Plasma insulin concentrations were measured using ELISA (Cristal Chem Inc., Downers Grove, Ill.). Nonesterified fatty acids, triglycerides, ketone bodies, BA and total cholesterol were determined by enzymatic assays (Roche, Mannheim, Germany). cAMP was measured using the cAMP-Screen system (Applied Biosystems, Bedford, Mass.).
Pieces of mouse tissues were fixed in Bouin's solution, dehydrated in ethanol, embedded in paraffin, and cut at a thickness of 5 μm. Sections were deparaffinized, rehydrated, and stained with haematoxylin and eosin. Transmission electron microscopy was then performed.

BAT of C57BL/6J mice = test: BAT gene expression by microarray and Q-RT-PCR; type: in vivo, mouse; details: GW4064 treatment
Procedure: For microarray analysis, RNA was isolated from BAT using the RNeasy mini kit (QIAGEN, Courtaboeuf, France). Equal amounts of RNA from mice in each group were pooled (n=3 or 4 mice) and used for cDNA synthesis. After second-strand cDNA synthesis (Life Technologies, Cergy Pontoise, France), in vitro transcription was performed with biotinylated UTP and CTP (Enzo Diagnostics, Farmingdale, N.Y.). Fragmented cRNA samples were hybridized to the Affymetrix MOE430A microarray. The raw data was analyzed using the Microarray Suite Software version 5.0 (MAS5.0, Affymetrix, Santa Clara, Calif.).

BAT cells = test: Isolated mouse BAT cells, D2 mRNA, D2 activity and cAMP; type: cell-based; details: BAT cells
Procedure: as §2

HSMM [3] = test: D2 activity in human skeletal muscle myoblasts; type: cell-based; details: 16 h incubation
Procedure: HSMM were obtained from Cambrex (Walkersville, Md.) and were cultured according to the suppliers instructions. D2 activity measurements were performed after a 16 h incubation with the indicated compounds. For the cAMP measurements, cells were preincubated 12 h in Opti-MEM (Life Technologies, Cergy Pontoise, France), supplemented with 1 mM IBMX. Then medium was changed and cells were incubated for another 1 h in Opti-MEM with 1 mM IBMX, after which the medium was replaced for Opti-MEM with 1 mM IBMX and the indicated compounds. After 30 minutes the cells were lysed for cAMP analysis.

HSMM [4] = test: cAMP levels in human skeletal muscle myoblasts; type: cell-based; details: 1 mM IBMX, 30 minutes
Procedure: HSMM were obtained from Cambrex (Walkersville, Md.) and were cultured according to the suppliers instructions. […] For the cAMP measurements, cells were preincubated 12 h in Opti-MEM (Life Technologies, Cergy Pontoise, France), supplemented with 1 mM IBMX. Then medium was changed and cells were incubated for another 1 h in Opti-MEM with 1 mM IBMX, after which the medium was replaced for Opti-MEM with 1 mM IBMX and the indicated compounds. After 30 minutes the cells were lysed for cAMP analysis.

rats = rats treated for 7 days; cited from earlier work

CC(C)c1onc(-c2c(Cl)cccc2Cl)c1COc1ccc(/C=C/c2cccc(C(=O)O)c2)c(Cl)c1 [GW4064]
serum TG levels (KK-Ay mice [1]): potently lowered | serum TG levels (ob/ob mice): potently lowered | VLDL secretion (KK-Ay mice [2]): significantly lowered | serum TGs (SHP+/+ and SHP-/- mice; SHP+/+ mice, 0, 3 and 7 days): significantly lowered | hepatic expression of SREBP-1c, ME, CYP7A1 and ANGPTL3 (SHP+/+ and SHP-/- mice; SHP+/+ mice): significantly reduced | decrease in serum TGs (SHP+/+ and SHP-/- mice; SHP-/- mice): completely abolished | hepatic expression of SREBP-1c, ME, CYP7A1 and ANGPTL3 (SHP+/+ and SHP-/- mice; SHP-/- mice): no decrease | effect against diet-induced obesity (C57BL/6J mice; high fat diet supplemented with GW4064, 15 mg/kg daily): no protective effect | body weight gain (C57BL/6J mice; mice on a high fat diet with GW4064): significantly increased | thermogenic gene response (BAT of C57BL/6J mice): did not result in an induction | cAMP levels (BAT cells): did not increase | D2 activity (HSMM [3]): did not induce | cAMP levels (HSMM [4]): did not increase | plasma TG (rats): decreased
